Counter-ions that a name gives are not always drawn.
Columns and labels:
[1] = system: dopamine transporter protein over the norepinephrine transporter protein; conditions: selectivity for dopamine transporter protein over norepinephrine transporter protein; cited from earlier work

Structure (SMILES)	melting point	DAT/NET Ki ratio [1]
Cc1cc(F)c2c(c1)C(C)N(C)C(F)C2c1ccccc1 (stereo not shown) (as salt: HCl)	194 to 197 °C (dec.)	–
CN1Cc2c(CO)cccc2C(c2ccccc2)C1 (stereo not shown)	144 to 146 °C	–
CN1Cc2cc(C(F)(F)F)ccc2C(c2ccccc2)C1 (stereo not shown)	257 to 275 °C	–
CN1Cc2cc(OCc3ccccc3)ccc2C(c2ccccc2)C1 (stereo not shown)	155 to 156 °C	–
CN1Cc2cc(Oc3ccccc3)ccc2C(c2ccccc2)C1 (stereo not shown)	175 to 176 °C (dec.)	–
CNCc1ccc2c(c1F)CN(C)CC2c1ccccc1 (stereo not shown) (as salt: HCl)	185 to 205 °C	–
COC(=O)C(c1ccccc1)C1CCCCN1 (stereo not shown) [Methylphenidate]	–	0.1
Cc1ccc2c(c1O)CN(C)CC2c1ccccc1 (stereo not shown)	260 to 261 °C	–
Cc1ccc2c(c1)CN(C)CC2c1ccc(F)c(C)c1 (stereo not shown)	174 to 175 °C	–
CN1Cc2cc(CO)ccc2C(c2ccccc2)C1 (stereo not shown) (as salt: HCl)	237 to 240 °C (dec.)	–
Cc1ccc2c(c1F)CN(C)CC2c1ccccc1 (stereo not shown) (as salt: hydrochloride)	215 to 216 °C	–
CN1Cc2cc(OC(F)(F)F)ccc2C(c2ccccc2)C1 (stereo not shown)	150 to 151 °C (dec.)	–
FCc1ccc2c(c1CF)CN(CF)CC2c1ccccc1 (stereo not shown)	108 to 113 °C	–
Cc1ccc2c(c1)C(C)N(C)CC2c1ccccc1 (stereo not shown)	87 to 89 °C	–
COc1c(C)ccc2c1CN(C)CC2c1ccccc1 (stereo not shown)	130 to 131 °C	–
Cc1c(F)ccc2c1CN(C)CC2c1ccccc1 (stereo not shown)	185 to 186 °C	–

Reference: US7163949B1, “4-phenyl substituted tetrahydroisoquinolines and use thereof” (AMR Technology, Inc., priority 1999, dated 2007)
